# Where “and” joins values, the source holds several entries; their conditions need not be identical. Equal values may be shown once. Read-outs that look alike come from different tables or passages of the source.
# Experiments:
# [1] = test system: G. lamblia (WB strain); experiment: In vivo antigiardial CD-1 mouse model; design: species or system CD-1 mice; details: for ED50: Giardia duodenalis, 48 h
# Description: The in vivo antigiardial activity of the compounds was assessed following a previously described phenotypic drug screening method. Female CD-1 mice (16–24 g) were obtained from the animal house facility at Universidad Autónoma Metropolitana, Xochimilco, and were maintained under standard laboratory conditions. The experimental protocols were reviewed and approved by the Animal Care and Use Committee, ensuring compliance with the guidelines for the care and use of laboratory animals. The giardicidal effect of RetroABZ was evaluated on mice infected with trophozoites of the G. lamblia WB strain. Mice were orally treated with a mebendazole solution (10 mg/mouse/day) for 3 consecutive days to ensure their freedom from any potential protozoan infections. One week after treatment, three consecutive fecal examinations were conducted to confirm the absence of protozoan infections before proceeding with experimental infection. Mice (n = 6 per group) were intragastrically infected with 1 × 10^6 trophozoites in 300 µL of a TYI-S-33 medium (Manassas, VA, USA) using a silastic tube ([…]. outside diameter) attached to a 1 mL syringe. Six days after infection, mice were treated intragastrically with 300 µL of RetroABZ dissolved in 1 mL of a 2% DMSO solution in water. […] Five single doses (0.018, 0.037, 0.075, 0.15, and 0.3 mg/kg) of both compounds were evaluated. Forty-eight hours after the treatment (8 days post-infection), the mice were euthanized, and the entire small intestine was removed, opened longitudinally, and placed in 10 mL of a 10% PAF fixer for a minimum of 2 h. Tubes were then vortexed to ensure complete detachment of the trophozoites, and the number of organisms present was calculated for both the treated and control groups.
# A data analysis was performed utilizing a Probit analysis. The percentage of surviving trophozoites was calculated by comparing their growth with the control group. To determine the dose required to kill 50% of the trophozoites (ED50), along with the 95% confidence limits, a Probit plot against the logarithm of the drug concentration was generated.
# [2] = test system: Huh-7 (human hepatocellular carcinoma cell line); experiment: In vitro cytotoxic assay (CellTiter 96 AQueous One) in Huh-7; type: cell-based
# Description: (§1) The cytotoxic assay of RetroABZ was carried out in Huh-7 (human hepatocellular carcinoma cell line) cells acquired from ATCC (American Type Culture Collection, Manassas, VA, USA). We also included an immortalized human epidermal keratinocyte line (HaCaT) as a control of non-cancerous cells. The cells were cultured in a DMEM medium (Invitrogen, Thermo Fisher Scientific, Inc., Waltham, MA, USA), supplemented with 10% fetal bovine serum (SFB, Invitrogen) and 2 mM glutamine. All cultures were maintained under standard culture conditions (37 °C and 5% CO2). For the cytotoxic assessment in a 96-well plate, 5000 cells per well were planted. […] The cellular viability was next calculated utilizing the CellTiter 96® AQueous One Solution Cell Proliferation Assay kit (Promega, Madison, WI, USA), following the manufacturer’s instructions. The experiments were carried out in triplicate in separate experiments. The Prism 8.0 statistical tool (Graphpad Software Inc., La Jolla, CA, USA) was used to examine the data, and a regression analysis was used to obtain the IC50.
# [3] = as above; type: cell-based, human; details: human, Huh-7 cells, 48 h
# Description: as §1
# [4] = test system: HaCaT (immortalized human keratinocytes); experiment: In vitro cytotoxic assay (CellTiter 96 AQueous One) in HaCaT; type: cell-based; details: 48 h
# Description: as §1
# [5] = as above; type: cell-based, human; details: human, HaCaT cells (immortalized keratinocytes)
# Description: as §1
# [6] = test system: G. lamblia strain WB trophozoites; experiment: In vitro giardicidal assay (trophozoite subculture, Probit analysis); type: cell-based, Giardia lamblia; details: for IC50: Giardia duodenalis
# Description: G. lamblia strain WB was cultured in a TYI-S-33 medium (Manassas, VA, USA) supplemented with 10% calf serum and bovine bile. In vitro susceptibility tests were conducted using 4 × 10^4 trophozoites of G. lamblia. […] Additionally, a control group was incubated solely in a culture medium containing DMSO. Following the incubation period, the trophozoites were washed and subcultured in a fresh medium without drugs for an additional 48 h. Subsequently, the trophozoites count was performed, and the median inhibitory concentration (IC50) was calculated with a Probit analysis. All experimental procedures were replicated in triplicate.
# [7] = Thermodynamic aqueous solubility (shake-flask, HPLC); type: physicochemical; details: for solubility at 48 h: 37 °C, water, thermodynamic from solid
# Description: The aqueous solubility of RetroABZ was assessed using the shake-flask saturation method, as described in previous studies. […] Subsequently, the solution was filtered through a 0.2 μm filter (Phenex-NY 4mm, Torrance, CA, USA). The aqueous solubility of the compound was then determined using an HPLC method. Experimentally, the compound RetroABZ was analyzed with high-performance liquid chromatography (HPLC PerkinElmer 200, Waltham, Massachusetts). The HPLC analysis was performed using an ultraviolet detector (UV/VIS 200). The analite was monitored at a wavelength of 254 nm. Chromatographic separation was performed using a Phenomenex Luna C18 (4.6 × 150 mm, 5 µm, Torrance, CA, USA). The mobile phase utilized in the study consisted of a mixture of methanol and water in a ratio of 60:40 (v/v). The elution from the stationary phase was conducted at a constant flow rate of 1 mL/min (isocratic mode). Aliquots of 20 µL were injected into the HPLC system and the total run time for each injection was set at 10 min; the analysis was performed for triplicate. […] Chromatographic separation was performed using a Phenomenex Luna C18 (4.6 × 150 mm, 5 µm). The mobile phase utilized was a mixture of methanol and a 0.05 M phosphate buffer (pH 5.7), 70:30 (v:v). The flow rate was kept constant at 1 mL/min. To prepare the saturated solution of the compound (1 mg/mL), it was stirred for 48 h at a constant temperature of 37 ± 2 °C. Subsequently, the solution was filtered through a 0.2 µm filter (Phenex-NY 4 mm). Aliquots of 20 µL were injected into the HPLC system, and the analysis was performed for triplicate.
# [8] = cited from earlier work
# [9] = test system: Huh-7 (human hepatocellular carcinoma cell line); design: method as in PMID 35036753; details: albendazole, reported value; cited from earlier work
# [10] = cited from earlier work; remark: listed apart in the source
# [11] = test system: HaCaT (immortalized human keratinocytes); design: method as in PMID 35036753; details: albendazole, reported value; cited from earlier work
# [12] = infected CD-1 mice, single intragastric dose, 48 h after treatment, read-out: ED50
smiles,measurement,setting,value
"Cc1ncc([N+](=O)[O-])n1CCO [Metronidazole, reference compound]",ED50,[1]; [12],0.194 mg/kg and 1.13 µmol/kg
"CCCSc1nc2cc(NC(=O)OC)ccc2[nH]1 [RetroABZ, Methyl (2-(propylthio)-1H-benzo[d]imidazol-5-yl)carbamate]",ED50,[1]; [12],0.0188 µmol/kg and 0.005 mg/kg
same,in vivo giardicidal activity relative to albendazole,[1]; ratio of ED50 values,11 fold
same,in vivo potency relative to metronidazole,[1]; ratio of ED50 values,39 fold
same,CC50,[2]; 48 h,313 ± 22.2 µM
same,Selectivity Index CC50/IC50 Huh-7,[2]; CC50 Huh-7 / IC50 G. lamblia,3768
same,CC50 at 48 h,[3],> 300 µM
same,CC50,[4],588 ± 18.5 µM
same,CC50 at 48 h,[5],> 300 µM
same,IC50,"[6]; trophozoites, 48 h incubation at 37 °C then 48 h subculture, read-out: IC50 G. lamblia",0.083 ± 0.013 µM
same,in vitro giardicidal activity relative to albendazole,[6]; ratio of IC50 values,2.4 times
same,solubility at 48 h,[7]; Solubility in water,246 µg/mL
same,Solubility in water,[7]; 48 h,245.74 ± 4.07 µg/mL
CCCSc1ccc2nc(NC(=O)OC)[nH]c2c1 [Albendazole],ED50,[1],0.055 mg/kg and 0.207 µmol/kg
same,documented solubility,[8]; 25 °C,0.02 µg/mL
same,reported solubility,[8],0.2 µg/mL
same,IC50,"[6]; 48 h, read-out: IC50 G. lamblia, trophozoites, 48 h incubation at 37 °C then 48 h subculture",0.196 ± 0.011 µM
same,CC50,[9],79.7 ± 1 µM
same,solubility at 48 h,"[7]; 37 ± 2 °C, 48 h, read-out: Solubility in water",10.6 ± 0.7 µg/mL
same,oral bioavailability,[10],5%
same,oral bioavailability,"[10]; stated in discussion, no reference given",less than 5%
same,CC50,[11],118.2 ± 1 µM
